Measured values: publication PMC10584170, “Machine learning-based phenotypic imaging to characterise the targetable biology of Plasmodium falciparum male gametocytes for the development of transmission-blocking antimalarials” (PLOS Pathogens, 2023)
Read-outs that look alike come from different tables or passages of the source.

How the values were obtained:
HepG2 cells = assay: HepG2 cytotoxicity counter-screen; details: cytotoxic activity against HepG2 cells
[1] = tested on: P. falciparum female gametocytes; assay: P. falciparum Dual Gamete Formation Assay (PfDGFA), female readout (Pfs25-positive female gametes); format: cell-based, Plasmodium falciparum NF54; details: for Selectivity ratio F: HepG2 Tox50 versus female IC50; for Average inhibition female (%) / % inhibition female (individual replicates) R1 / % inhibition female (individual replicates) R3 / % inhibition female (individual replicates) R4 / inhibition at 2 µM: 24h preincubation with gametocytes; for IC50: PfDGFA, 24 h incubation with gametocytes before induction, female gamete readout, read-out: Female IC50; for HitlevelF: number of replicates with >50% inhibition in the female readout
In short: (§1)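 Mature NF54 gametocytes (day 14) were incubated with compound for 24 h at 37°C under 1% O2/3% CO2, then triggered with xanthurenic acid ookinete medium plus Cy3-anti-Pfs25. Exflagellation was imaged by brightfield; after a further 24 h at 28°C, Pfs25-positive female gametes were imaged by fluorescence and counted by automated image analysis.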

[2] = tested on: P. falciparum male gametocytes; assay: P. falciparum Dual Gamete Formation Assay (PfDGFA), male readout (exflagellation); format: cell-based, Plasmodium falciparum NF54; details: for Selectivity Ratio M: HepG2 Tox50 versus male IC50; for Average inhibition male (%) / % inhibition male (individual replicates) R1 / % inhibition male (individual replicates) R3 / % inhibition male (individual replicates) R4 / inhibition at 2 µM: 24h preincubation with gametocytes; for IC50: PfDGFA, 24 h incubation with gametocytes before induction, exflagellation readout, read-out: Male IC50; for HitlevelM: number of replicates with >50% inhibition in the male readout
In short: as §1

[3] = PfDGFA at 2µM, average of replicates

IC50 [1] [nM]	IC50 [2] [nM]	IC50 ([1]; Plasmodium falciparum) [nM]	IC50 ([2]; Plasmodium falciparum) [nM]	SMILES	Tox50 (HepG2 cells) [µM]	Selectivity ratio F [1]	Average inhibition female (%) [1, 3] [%]	% inhibition female (individual replicates) R1 ([1]; PfDGFA at 2µM, replicate R1) [%]	% inhibition female (individual replicates) R3 ([1]; PfDGFA at 2µM, replicate R3) [%]	% inhibition female (individual replicates) R4 ([1]; PfDGFA at 2µM, replicate R4) [%]	HitlevelF ([1]; 2µM)	Selectivity Ratio M [2]	Average inhibition male (%) [2, 3] [%]	% inhibition male (individual replicates) R1 ([2]; PfDGFA at 2µM, replicate R1) [%]	% inhibition male (individual replicates) R3 ([2]; PfDGFA at 2µM, replicate R3) [%]	% inhibition male (individual replicates) R4 ([2]; PfDGFA at 2µM, replicate R4) [%]	HitlevelM ([2]; 2µM)	Average inhibition female (%) ([1]; 2µM, average of replicates)	% inhibition female (individual replicates) R1 ([1]; 2µM, replicate R1) [%]	% inhibition female (individual replicates) R3 ([1]; 2µM, replicate R3) [%]	further results
3070	420			CCN(CC)CC(O)CNc1c2ccc([N+](=O)[O-])cc2nc2cc(OC)c(OC)cc12.Cl (stereo not drawn) [TCMDC-138079]	2.63	0.86						6.3						25.5	28.2	21.9	% inhibition female (individual replicates) R4 ([1]; 2µM, replicate R4): 25.2%; Average inhibition male (%) ([2]; 2µM, average of replicates): 95.0%; % inhibition male (individual replicates) R1 ([2]; 2µM, replicate R1): 93.0%; % inhibition male (individual replicates) R4 ([2]; 2µM, replicate R4): 92.3%
1560	680			CCOC(=O)c1cc2c(CCN3C(=O)c4ccccc4C3=O)cn(C)c2cc1-c1ccncc1 [TCMDC-138099]	1.57	1						2.3						93.8	94.3	100.9	% inhibition female (individual replicates) R4 ([1]; 2µM, replicate R4): 92.0%; Average inhibition male (%) ([2]; 2µM, average of replicates): 101.6%; % inhibition male (individual replicates) R1 ([2]; 2µM, replicate R1): 102.0%; % inhibition male (individual replicates) R3 ([2]; 2µM, replicate R3): 99.5%; % inhibition male (individual replicates) R4 ([2]; 2µM, replicate R4): 102.4%
		380	380	COc1ccc2nc3cc(Cl)ccc3c(NCCCCNc3c4ccc(Cl)cc4nc4ccc(OC)cc34)c2c1 [TCMDC-138218]	2.31	6.16					4	6.15					4				inhibition at 2 µM ([1]; Plasmodium falciparum, PfDGFA at 2µM, average of replicates, read-out: Average inhibition female (%)): 88.1%; inhibition at 2 µM ([1]; Plasmodium falciparum, PfDGFA at 2µM, replicate R1, read-out: % inhibition female (individual replicates) R1): 84.2%; inhibition at 2 µM ([1]; Plasmodium falciparum, PfDGFA at 2µM, replicate R2, read-out: % inhibition female (individual replicates) R2): 86.6%; inhibition at 2 µM ([1]; Plasmodium falciparum, PfDGFA at 2µM, replicate R3, read-out: % inhibition female (individual replicates) R3): 91.5%; inhibition at 2 µM ([1]; Plasmodium falciparum, PfDGFA at 2µM, replicate R4, read-out: % inhibition female (individual replicates) R4): 89.9%; inhibition at 2 µM ([2]; Plasmodium falciparum, PfDGFA at 2µM, average of replicates, read-out: Average inhibition male (%)): 73.2%; inhibition at 2 µM ([2]; Plasmodium falciparum, PfDGFA at 2µM, replicate R1, read-out: % inhibition male (individual replicates) R1): 64.4%; inhibition at 2 µM ([2]; Plasmodium falciparum, PfDGFA at 2µM, replicate R2, read-out: % inhibition male (individual replicates) R2): 64.9%; inhibition at 2 µM ([2]; Plasmodium falciparum, PfDGFA at 2µM, replicate R3, read-out: % inhibition male (individual replicates) R3): 77.2%; inhibition at 2 µM ([2]; Plasmodium falciparum, PfDGFA at 2µM, replicate R4, read-out: % inhibition male (individual replicates) R4): 86.3%

Further lines, the compound ahead of its results:

SMILES	IC50 [1] [nM]	IC50 [2] [nM]	IC50 ([1]; Plasmodium falciparum) [nM]	IC50 ([2]; Plasmodium falciparum) [nM]	Tox50 (HepG2 cells) [µM]	Selectivity ratio F [1]	Average inhibition female (%) [1, 3] [%]	% inhibition female (individual replicates) R1 ([1]; PfDGFA at 2µM, replicate R1) [%]	% inhibition female (individual replicates) R3 ([1]; PfDGFA at 2µM, replicate R3) [%]	% inhibition female (individual replicates) R4 ([1]; PfDGFA at 2µM, replicate R4) [%]	HitlevelF ([1]; 2µM)	Selectivity Ratio M [2]	Average inhibition male (%) [2, 3] [%]	% inhibition male (individual replicates) R1 ([2]; PfDGFA at 2µM, replicate R1) [%]	% inhibition male (individual replicates) R3 ([2]; PfDGFA at 2µM, replicate R3) [%]	% inhibition male (individual replicates) R4 ([2]; PfDGFA at 2µM, replicate R4) [%]	HitlevelM ([2]; 2µM)	Average inhibition female (%) ([1]; 2µM, average of replicates)	% inhibition female (individual replicates) R1 ([1]; 2µM, replicate R1) [%]	% inhibition female (individual replicates) R3 ([1]; 2µM, replicate R3) [%]	further results
CCCCCCCCN1CCN(CCCCCCNc2c3ccccc3nc3ccccc23)CC1.Cl [TCMDC-138015]	1910	1760			4.12	2.15	83.0	79.8	90.0	82.3	4	2.34	63.5	58.8	66.4	81.8	3				
Cc1ccc(S(=O)(=O)N(CCCNCc2cccc(O)c2)c2ccccc2)cc1 [TCMDC-138022]			7660	310	31.57	4.12						100.82									inhibition at 2 µM ([1]; Plasmodium falciparum, 2µM, average of replicates, read-out: Average inhibition female (%)): 63.8%; inhibition at 2 µM ([1]; Plasmodium falciparum, 2µM, replicate R1, read-out: % inhibition female (individual replicates) R1): 52.6%; inhibition at 2 µM ([1]; Plasmodium falciparum, 2µM, replicate R2, read-out: % inhibition female (individual replicates) R2): 60%; inhibition at 2 µM ([1]; Plasmodium falciparum, 2µM, replicate R3, read-out: % inhibition female (individual replicates) R3): 91.9%; inhibition at 2 µM ([1]; Plasmodium falciparum, 2µM, replicate R4, read-out: % inhibition female (individual replicates) R4): 50.6%; inhibition at 2 µM ([2]; Plasmodium falciparum, 2µM, average of replicates, read-out: Average inhibition male (%)): 98.1%; inhibition at 2 µM ([2]; Plasmodium falciparum, 2µM, replicate R1, read-out: % inhibition male (individual replicates) R1): 102%; inhibition at 2 µM ([2]; Plasmodium falciparum, 2µM, replicate R2, read-out: % inhibition male (individual replicates) R2): 101%; inhibition at 2 µM ([2]; Plasmodium falciparum, 2µM, replicate R3, read-out: % inhibition male (individual replicates) R3): 97.3%; inhibition at 2 µM ([2]; Plasmodium falciparum, 2µM, replicate R4, read-out: % inhibition male (individual replicates) R4): 91.8%
COc1cc2nc(NCc3cccc(CNC(=O)c4ccc(-c5ccc(C(C)=O)cc5)cc4)c3)nc(N)c2cc1OC.O=C(O)C(F)(F)F [TCMDC-138177]	2020	1630			6.34	3.13	43.1	31.2	17.8	57.2	2	3.88	65.2	54.7	22.4	95.6	3				
